Assay results: the NIST ThermoML archive (doi:10.1021/je400250u)
± gives the expanded uncertainty stated by the source.

Assays:
[1] = xn = mol fraction of the nth substance listed; conditions: 100 kPa, Liquid, x2 = 0; for viscosity: Capillary tube (Ostwald / Ubbelohde) method; for mass density: Vibrating tube method
[2] = refractive index (Na D-line) (dimensionless); xn = mol fraction of the nth substance listed; conditions: 100 kPa, Liquid, Standard Abbe refractometry, x2 = 0
[3] = refractive index (Na D-line) (dimensionless); conditions: 101.33 kPa, Liquid, Standard Abbe refractometry
[4] = 100 kPa, Liquid; for viscosity: Capillary tube (Ostwald / Ubbelohde) method; for mass density: Vibrating tube method

SMILES | viscosity ([1]; 293.15 K) [mPa·s] | mass density ([1]; 293.15 K) [kg/m3] | viscosity ([1]; 298.15 K) [mPa·s] | mass density ([1]; 298.15 K) [kg/m3] | viscosity ([1]; 303.15 K) [mPa·s] | mass density ([1]; 303.15 K) [kg/m3] | viscosity ([1]; 308.15 K) [mPa·s] | mass density ([1]; 308.15 K) [kg/m3] | viscosity ([1]; 313.15 K) [mPa·s] | mass density ([1]; 313.15 K) [kg/m3] | viscosity ([1]; 318.15 K) [mPa·s] | mass density ([1]; 318.15 K) [kg/m3] | viscosity ([1]; 323.15 K) [mPa·s] | mass density ([1]; 323.15 K) [kg/m3] | refractive index ([2]; 298.15 K) | refractive index ([2]; 308.15 K) | refractive index ([2]; 318.15 K) | refractive index ([3]; 298.15 K) | refractive index ([3]; 308.15 K) | refractive index ([3]; 318.15 K) | also measured
CCCCCCCCC [nonane] + C1CC[C@H]2CCCC[C@@H]2C1 | 0.724 ± 0.011 | 717.94 ± 0.24 | 0.681 ± 0.011 | 714.11 ± 0.24 | 0.64 ± 0.011 | 710.2 ± 0.24 | 0.604 ± 0.011 | 706.29 ± 0.25 | 0.571 ± 0.011 | 702.35 ± 0.25 | 0.547 ± 0.011 | 698.4 ± 0.25 | 0.521 ± 0.011 | 694.43 ± 0.25 | 1.4026 ± 0.0013 | 1.3983 ± 0.0013 | 1.3937 ± 0.0013 | – | – | – | –
CCCCCCCCC [nonane] + C1CC[C@H]2CCCC[C@H]2C1 | 0.724 ± 0.011 | 717.94 ± 0.24 | 0.681 ± 0.011 | 714.11 ± 0.24 | 0.64 ± 0.011 | 710.2 ± 0.24 | 0.604 ± 0.011 | 706.29 ± 0.25 | 0.571 ± 0.011 | 702.35 ± 0.25 | 0.547 ± 0.011 | 698.4 ± 0.25 | 0.521 ± 0.011 | 694.43 ± 0.25 | 1.4026 ± 0.0013 | 1.3983 ± 0.0013 | 1.3937 ± 0.0013 | – | – | – | –
C1CC[C@H]2CCCC[C@@H]2C1 [trans-decahydronaphthalene] | – | – | – | – | – | – | – | – | – | – | – | – | – | – | – | – | – | 1.4662 ± 0.0012 | 1.4618 ± 0.0012 | 1.4581 ± 0.0012 | viscosity ([4]; 293.15 K): 2.112 ± 0.015 mPa·s; mass density ([4]; 293.15 K): 869.78 ± 0.13 kg/m3; viscosity ([4]; 298.15 K): 1.925 ± 0.015 mPa·s; mass density ([4]; 298.15 K): 866.07 ± 0.13 kg/m3; viscosity ([4]; 303.15 K): 1.769 ± 0.014 mPa·s; mass density ([4]; 303.15 K): 862.34 ± 0.14 kg/m3; viscosity ([4]; 308.15 K): 1.628 ± 0.013 mPa·s; mass density ([4]; 308.15 K): 858.61 ± 0.14 kg/m3; viscosity ([4]; 313.15 K): 1.505 ± 0.013 mPa·s; mass density ([4]; 313.15 K): 854.88 ± 0.14 kg/m3; viscosity ([4]; 318.15 K): 1.394 ± 0.013 mPa·s; mass density ([4]; 318.15 K): 851.14 ± 0.14 kg/m3; viscosity ([4]; 323.15 K): 1.295 ± 0.012 mPa·s; mass density ([4]; 323.15 K): 847.4 ± 0.14 kg/m3
CCCCCCCCCCC [undecane] | – | – | – | – | – | – | – | – | – | – | – | – | – | – | – | – | – | 1.4138 ± 0.0013 | 1.4095 ± 0.0013 | 1.4058 ± 0.0013 | viscosity ([4]; 293.15 K): 1.17 ± 0.014 mPa·s; mass density ([4]; 293.15 K): 740.28 ± 0.32 kg/m3; viscosity ([4]; 298.15 K): 1.086 ± 0.014 mPa·s; mass density ([4]; 298.15 K): 736.63 ± 0.32 kg/m3; viscosity ([4]; 303.15 K): 1.004 ± 0.013 mPa·s; mass density ([4]; 303.15 K): 732.93 ± 0.32 kg/m3; viscosity ([4]; 308.15 K): 0.931 ± 0.013 mPa·s; mass density ([4]; 308.15 K): 729.22 ± 0.32 kg/m3; viscosity ([4]; 313.15 K): 0.862 ± 0.013 mPa·s; mass density ([4]; 313.15 K): 725.51 ± 0.32 kg/m3; viscosity ([4]; 318.15 K): 0.801 ± 0.012 mPa·s; mass density ([4]; 318.15 K): 721.78 ± 0.32 kg/m3; viscosity ([4]; 323.15 K): 0.749 ± 0.012 mPa·s; mass density ([4]; 323.15 K): 718.04 ± 0.31 kg/m3
CCCCCCCCCCC [undecane] + C1CC[C@H]2CCCC[C@@H]2C1 | 1.17 ± 0.014 | 740.28 ± 0.32 | 1.086 ± 0.014 | 736.63 ± 0.32 | 1.004 ± 0.013 | 732.93 ± 0.32 | 0.931 ± 0.013 | 729.22 ± 0.32 | 0.862 ± 0.013 | 725.51 ± 0.32 | 0.801 ± 0.012 | 721.78 ± 0.32 | 0.749 ± 0.012 | 718.04 ± 0.31 | 1.4138 ± 0.0013 | 1.4095 ± 0.0013 | 1.4058 ± 0.0013 | – | – | – | –
CCCCCCCCCCC [undecane] + C1CC[C@H]2CCCC[C@H]2C1 | 1.17 ± 0.014 | 740.28 ± 0.32 | 1.086 ± 0.014 | 736.63 ± 0.32 | 1.004 ± 0.013 | 732.93 ± 0.32 | 0.931 ± 0.013 | 729.22 ± 0.32 | 0.862 ± 0.013 | 725.51 ± 0.32 | 0.801 ± 0.012 | 721.78 ± 0.32 | 0.749 ± 0.012 | 718.04 ± 0.31 | 1.4138 ± 0.0013 | 1.4095 ± 0.0013 | 1.4058 ± 0.0013 | – | – | – | –
